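Protocol summary: plate cells (96-well), add compound at 5 concentrations, incubate 48 h, interpolate endpoints linearly. GI50 marks 50% less growth.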 Active and inactive are the calls of the source. Cut-off read from the data, not from the text of the source: active = GI50 up to about 1.1 µM and inactive = higher.
How the values were obtained:
Experiment in all cases: inhibition of tumour cell growth, NCI panel, 48 h
786-0 = system: 786-0
CAKI-1 = system: CAKI-1
CCRF-CEM = system: CCRF-CEM
COLO 205 = system: COLO 205
DU-145 = system: DU-145
HCT-116 = system: HCT-116
HT-29 = system: HT-29
LOX IMVI = system: LOX IMVI
M14 = system: M14
MOLT-4 = system: MOLT-4
Malme-3M = system: Malme-3M
NCI-H23 = system: NCI-H23
OVCAR-5 = system: OVCAR-5
PC-3 = system: PC-3
SF-295 = system: SF-295
SF-539 = system: SF-539
SK-MEL-2 = system: SK-MEL-2
SW-620 = system: SW-620
TK-10 = system: TK-10

Compound	GI50 (786-0)	GI50 (CAKI-1)	GI50 (CCRF-CEM)	GI50 (COLO 205)	GI50 (DU-145)	GI50 (HCT-116)	GI50 (HT-29)	GI50 (LOX IMVI)	GI50 (M14)	GI50 (MOLT-4)	GI50 (Malme-3M)	GI50 (NCI-H23)	GI50 (OVCAR-5)	GI50 (PC-3)	GI50 (SF-295)	GI50 (SF-539)	GI50 (SK-MEL-2)	GI50 (SW-620)	GI50 (TK-10)
CCOC(=O)C(Cc1cccn1C(=O)OC(C)(C)C)[N+](=O)[O-] (configuration not stated)	21.9 µM (inactive)	24.7 µM (inactive)	17.1 µM (inactive)	20.8 µM (inactive)	26.9 µM (inactive)	20.9 µM (inactive)	22.3 µM (inactive)	17.5 µM (inactive)	19.2 µM (inactive)	20 µM (inactive)	28.1 µM (inactive)	34.8 µM (inactive)	23.8 µM (inactive)	20.7 µM (inactive)	30.6 µM (inactive)	22.1 µM (inactive)	20.1 µM (inactive)	23.8 µM (inactive)	22.3 µM (inactive)
CCc1c[n+]([O-])c(C)cc1[N+](=O)[O-]	97.1 µM (inactive)	40.4 µM (inactive)	> 100 µM (inactive)	15.6 µM (inactive)	28 µM (inactive)	26.3 µM (inactive)	82.8 µM (inactive)	> 100 µM (inactive)	40.2 µM (inactive)	> 100 µM (inactive)	40.1 µM (inactive)	74.1 µM (inactive)	> 100 µM (inactive)	> 100 µM (inactive)	> 100 µM (inactive)	> 100 µM (inactive)	21 µM (inactive)	33.3 µM (inactive)	35.2 µM (inactive)
O=[As](O)(O)c1ccc(NCc2ccccc2)cc1	> 100 µM (inactive)	> 100 µM (inactive)	–	> 100 µM (inactive)	> 100 µM (inactive)	> 100 µM (inactive)	> 100 µM (inactive)	> 100 µM (inactive)	> 100 µM (inactive)	> 100 µM (inactive)	> 100 µM (inactive)	92.9 µM (inactive)	> 100 µM (inactive)	> 100 µM (inactive)	> 100 µM (inactive)	–	> 100 µM (inactive)	–	> 100 µM (inactive)
Cc1cc(C)c2c(c1)C/C(=C\c1ccccc1C(=O)O)C2=O	> 100 µM (inactive)	> 100 µM (inactive)	34.6 µM (inactive)	–	> 100 µM (inactive)	76.6 µM (inactive)	> 100 µM (inactive)	> 100 µM (inactive)	> 100 µM (inactive)	76.4 µM (inactive)	> 100 µM (inactive)	> 100 µM (inactive)	> 100 µM (inactive)	> 100 µM (inactive)	> 100 µM (inactive)	39.4 µM (inactive)	–	> 100 µM (inactive)	> 100 µM (inactive)
O=C1CSC(c2cccc(Cl)c2)N1c1ccc(-n2c(-c3ccccc3)nc3ccccc3c2=O)cc1 (configuration not stated)	> 100 µM (inactive)	45.3 µM (inactive)	40 µM (inactive)	> 100 µM (inactive)	> 100 µM (inactive)	53 µM (inactive)	97.7 µM (inactive)	46.2 µM (inactive)	–	5.47 µM (inactive)	> 100 µM (inactive)	> 100 µM (inactive)	> 100 µM (inactive)	51.3 µM (inactive)	> 100 µM (inactive)	67.1 µM (inactive)	> 100 µM (inactive)	> 100 µM (inactive)	> 100 µM (inactive)
CCOC(=O)Oc1cc2c(c(OC)c1OC)-c1ccc(SC)c(=O)cc1C(NC(=O)C(F)(F)F)CC2 (configuration not stated)	0.0017 µM (active)	0.0147 µM (active)	< 0.001 µM (active)	0.0577 µM (active)	0.00258 µM (active)	< 0.001 µM (active)	< 0.001 µM (active)	0.00177 µM (active)	< 0.001 µM (active)	0.00117 µM (active)	< 0.001 µM (active)	0.0209 µM (active)	0.1 µM (active)	0.026 µM (active)	< 0.001 µM (active)	–	–	< 0.001 µM (active)	> 10 µM (inactive)
COC(=O)C(COC(=O)/C=C/c1ccc(OC(C)=O)c(OC(C)=O)c1)NC(=O)/C=C/c1ccc(OC(C)=O)c(OC(C)=O)c1 (configuration not stated)	17.9 µM (inactive)	18.5 µM (inactive)	16.1 µM (inactive)	20.7 µM (inactive)	20.8 µM (inactive)	19.2 µM (inactive)	19.8 µM (inactive)	16.3 µM (inactive)	17.6 µM (inactive)	38.3 µM (inactive)	11.3 µM (inactive)	25.9 µM (inactive)	38.7 µM (inactive)	13.6 µM (inactive)	–	31.8 µM (inactive)	18.3 µM (inactive)	33.4 µM (inactive)	–
O=C(O)c1c2c(cc3c1CC1(Cc4ccccc4C1)C3)CCC2	80 µM (inactive)	53.2 µM (inactive)	23.3 µM (inactive)	57.7 µM (inactive)	66.5 µM (inactive)	> 10 µM (inactive)	73.8 µM (inactive)	24.8 µM (inactive)	–	82.8 µM (inactive)	51.3 µM (inactive)	67.5 µM (inactive)	> 100 µM (inactive)	> 100 µM (inactive)	> 100 µM (inactive)	> 100 µM (inactive)	–	> 100 µM (inactive)	> 100 µM (inactive)
N#CC(C#N)=C1c2ccccc2C(=NN)c2ccccc21	> 54.8 µM (inactive)	> 25.7 µM (inactive)	> 100 µM (inactive)	> 100 µM (inactive)	5.25 µM (inactive)	–	> 100 µM (inactive)	–	88.1 µM (inactive)	> 100 µM (inactive)	92.9 µM (inactive)	–	> 100 µM (inactive)	> 100 µM (inactive)	4.83 µM (inactive)	> 56.1 µM (inactive)	> 100 µM (inactive)	> 100 µM (inactive)	> 100 µM (inactive)
CCCCCCCCCCCCCCNC(=O)CCC(NC(=O)c1ccc(N(C)Cc2cnc3nc(N)nc(N)c3n2)cc1)C(=O)NCCCCCCCCCCCCCC (configuration not stated)	1.28 µM (inactive)	10.4 µM (inactive)	0.773 µM (active)	11.8 µM (inactive)	13.9 µM (inactive)	0.698 µM (active)	4.13 µM (inactive)	0.437 µM (active)	0.441 µM (active)	0.982 µM (active)	–	3.8 µM (inactive)	19.2 µM (inactive)	0.665 µM (active)	7.19 µM (inactive)	0.908 µM (active)	31 µM (inactive)	0.288 µM (active)	> 39.1 µM (inactive)
COc1cc(/C=N\NC(=O)C[N+](C)(C)C)cc(OC)c1OC	> 10 µM (inactive)	> 10 µM (inactive)	> 10 µM (inactive)	> 10 µM (inactive)	> 10 µM (inactive)	> 10 µM (inactive)	> 10 µM (inactive)	> 10 µM (inactive)	> 10 µM (inactive)	> 10 µM (inactive)	> 10 µM (inactive)	> 10 µM (inactive)	> 10 µM (inactive)	> 10 µM (inactive)	> 10 µM (inactive)	> 10 µM (inactive)	–	> 10 µM (inactive)	> 10 µM (inactive)
CC1(C)[C@@H](Cn2cc(I)c(=O)[nH]c2=O)CC[C@@]1(C)CO	> 100 µM (inactive)	> 100 µM (inactive)	> 100 µM (inactive)	> 100 µM (inactive)	> 100 µM (inactive)	> 100 µM (inactive)	–	> 100 µM (inactive)	> 100 µM (inactive)	–	–	–	> 100 µM (inactive)	> 100 µM (inactive)	> 100 µM (inactive)	–	> 100 µM (inactive)	> 100 µM (inactive)	> 100 µM (inactive)
Clc1ccc2c(NCCNC3CCCCC3)ccnc2c1	5.47 µM (inactive)	5.41 µM (inactive)	2.81 µM (inactive)	1.36 µM (inactive)	16.1 µM (inactive)	5.96 µM (inactive)	3.15 µM (inactive)	2.67 µM (inactive)	1.77 µM (inactive)	3.48 µM (inactive)	1.87 µM (inactive)	15.7 µM (inactive)	14.9 µM (inactive)	12.9 µM (inactive)	3.34 µM (inactive)	–	3.22 µM (inactive)	12.2 µM (inactive)	2.7 µM (inactive)
CN(C)/C=N/CCN1CCOCC1	> 100 µM (inactive)	–	> 100 µM (inactive)	> 100 µM (inactive)	> 100 µM (inactive)	> 100 µM (inactive)	> 100 µM (inactive)	> 100 µM (inactive)	> 100 µM (inactive)	> 100 µM (inactive)	> 100 µM (inactive)	> 100 µM (inactive)	> 100 µM (inactive)	> 100 µM (inactive)	> 100 µM (inactive)	> 100 µM (inactive)	> 100 µM (inactive)	–	> 100 µM (inactive)
Cc1ccc(/N=N/C(=NNC(=O)c2ccc(C)cc2)c2ccc(N(C)C)cc2)cc1	33.3 µM (inactive)	23 µM (inactive)	–	12.3 µM (inactive)	20.8 µM (inactive)	24.2 µM (inactive)	31.1 µM (inactive)	33.4 µM (inactive)	24.8 µM (inactive)	33 µM (inactive)	–	24.3 µM (inactive)	51.8 µM (inactive)	42.6 µM (inactive)	26.4 µM (inactive)	43 µM (inactive)	38.3 µM (inactive)	32.2 µM (inactive)	64.7 µM (inactive)
C[C@H](O)C1CC(Cn2nnc3c(N)ncnc32)C1(C)C (some centres not stated)	> 100 µM (inactive)	> 100 µM (inactive)	> 100 µM (inactive)	–	> 100 µM (inactive)	> 100 µM (inactive)	–	> 100 µM (inactive)	> 100 µM (inactive)	–	–	–	> 100 µM (inactive)	> 100 µM (inactive)	> 100 µM (inactive)	> 100 µM (inactive)	> 100 µM (inactive)	> 100 µM (inactive)	> 100 µM (inactive)

— ChEMBL document CHEMBL1201862, “PubChem BioAssay data set” (2004)
